This is an account of results in patent publication US20040248919A1, “Fluorinated trienes and their use as rxr modulators” (priority 2001, published 2004).

The target in one data set is T1, RXRα (Homo sapiens, UniProt P19793).
T1 sequence (P19793 1-462): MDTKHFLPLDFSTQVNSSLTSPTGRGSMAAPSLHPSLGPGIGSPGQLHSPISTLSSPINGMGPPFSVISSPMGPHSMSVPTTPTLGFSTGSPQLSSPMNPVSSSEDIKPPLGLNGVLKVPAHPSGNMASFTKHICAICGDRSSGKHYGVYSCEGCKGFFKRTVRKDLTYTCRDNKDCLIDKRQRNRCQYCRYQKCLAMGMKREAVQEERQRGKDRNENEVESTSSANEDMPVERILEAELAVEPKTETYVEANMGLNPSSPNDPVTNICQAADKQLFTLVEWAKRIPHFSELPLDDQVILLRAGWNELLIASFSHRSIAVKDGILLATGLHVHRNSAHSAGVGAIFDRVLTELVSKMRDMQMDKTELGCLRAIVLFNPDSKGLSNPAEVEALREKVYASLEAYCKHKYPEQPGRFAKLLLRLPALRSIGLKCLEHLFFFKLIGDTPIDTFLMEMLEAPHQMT
Kind of data set: RXR binding, competition with tritiated retinoid. To be noted: read-out: RXR Binding alpha. From the text: In addition to the cotransfection data, the binding of selected compounds of the present invention to the RAR and RXR receptors was also investigated according to the methodology described in M. F., Boehm, et al., “Synthesis and Structure-Activity Relation-ships of Novel Retinoid X Receptor Selective Retinoids”, 37 J. Med. Chem., 2930 (1994); M. F. Boehm, et al., “Synthesis of High Specific Activity [^3H]-9-cis Retinoic Acid and Its Application for Identifying Retinoids with Unusual Binding Properties”, 37 J. Med. Chem., 408 (1994), and E. A. Allegretto, et al., “Characterization and Comparison of Hormone-Binding and Transactivation Properties of Retinoic Acid and Retinoid X Receptors Expressed in Mammalian Cells and Yeast”, 268 J. Biol. Chem., 22625 (1993), the disclosures of which are herein incorporated by reference.
Non-specific binding was defined as that binding remaining in the presence of 500 nM of the appropriate unlabelled compound. At the end of the incubation period, bound ligand was separated from free. The amount of bound tritiated retinoid was determined by liquid scintillation counting of an aliquot (700 μL) of the supernatant fluid or the hydroxylapatite pellet.
After correcting for non-specific binding, IC50 values were determined. The IC50 value is defined as the concentration of competing ligand needed to reduce specific binding by 50%. The IC50 value was determined graphically from a log-logit plot of the data. The Ki values were determined by application of the Cheng-Prussof equation to the IC50 values, the labeled ligand concentration and the Kd of the labeled ligand.

The test system of another data set is RXR:RAR heterodimer. Kind of data set: RXR:RAR heterodimer co-transfection assay (RARa Synergy CTF) in CV-1 cells. In kind it is cell-based, human. To be noted: for RARa Synergy CTF % Efficacy: agonist efficacy. From the text:
In the co-transfection assay, cloned cDNA for one or more IRs (e.g. human RARα, RXRα, or PPARγ), alone or in combination (i.e. for heterodimer assays) under the control of a constitutive promoter (e.g., the SV 40, RSV or CMV promoter) is introduced by transfection (a procedure to introduce exogenous genes into cells) into a background cell substantially devoid of endogenous IRs. These introduced gene(s) direct the recipient cells to make the IR protein(s) of interest. A further gene is also introduced (co-transfected) into the same cells in conjunction with the IR gene(s). This further gene, comprising the cDNA for a reporter protein, such as firefly luciferase (LUC), controlled by an appropriate hormone responsive promoter containing a hormone response element (HRE). This reporter plasmid functions as a reporter for the transcriptional-modulating activity of the target IR(s). Thus, the reporter acts as a surrogate for the products (mRNA then protein) normally expressed by a gene under control of the target receptor(s) and their native hormone(s).
The RXR modulator compounds of the present invention were further tested for activity on RXR heterodimers with RARα utilizing the cotransfection assay in CV-1 cells as described in Example 12B. The RXR:RAR heterodimer cotransfection assays utilized the following expression plasmids and reporter plasmid: pRShRARα (10 ng/well, Giguere et al., 330 Nature, 624 (1987) the disclosure of which is herein incorporated by reference) or pRShRARγ (10 ng/well, Ishikawa et al., 4 Mol. Endocrin, 837 (1990) the disclosure of which is herein incorporated by reference) with Δ-MTV-LUC (50 ng/well, Hollenberg and Evans, 55 Cell, 899 (1988), the disclosure of which is herein incorporated by reference) containing an RARE which is referred to as two copies of the TRE-palindromic response element described in Umesono et al., 336 Nature, 262 (1988), the disclosure of which is herein incorporated by reference. To conduct a RXR:PPARγ heterodimer cotransfection assay, the RXRα receptor expression plasmid, pRShRXRα (10 ng/well), can be cotransfected with the PPARγ expression plasmid, pCMVhPPARγ (10 ng/well), and a reporter plasmid containing three copies of a PPARγ response element (pPREA3-tk-LUC, 50 ng/well; Mukherjee et al. 272 Journ. Biol. Chem., 8071-8076 (1997) and references cited therein, the disclosures of which are herein incorporated by reference).
Cotransfections were performed as described in Example 12B. For determination of agonist activity in the context of the RXR:RAR heterodimer, media containing compounds of the present invention in concentrations ranging from 10^−10 to 10^−5 M were added to the cells. Similarly, the reference compounds all-trans retinoic acid (ATRA)(Sigma Chemical) and TTNPB ((E)-4-[2-(5,6,7,8-tetrahydro-5,5,8,8-tetramethyl-2-naphthalenyl)-1-propenyl]benzoic acid: Hoffman LaRoche, Inc.), known RAR agonist compounds were added at similar concentrations to provide a reference point for analysis of the agonist activity of the compounds of the present invention. Antagonist efficacy and IC50 values were determined as in Example 12B.
RAR suppresses RXR ligand binding and transactivation of typical RXR agonists (e.g., LGD1069, LG100268) via allosteric interactions. Forman, B. M., Umesono, K., Chen, J., & Evans, R. M., Cell 81, 541-550 (1995) and Kurokawa, R., et. al. Nature 371, 528-531 (1994). However, when RAR is occupied, typical RXR agonists activate the heterodimer. Forman, B. M., Umesono, K, Chen, J., & Evans, R. M., Cell 81, 541-550 (1995) and Roy, B., Taneja, R., & Chambon, P., Mol. Cell. Biol. 15, 6481-6487 (1995). To examine the effects of the compounds of the present invention on the transcriptional properties of the RXR:RAR heterodimer, a heterodimer cotransfection assay as described above was employed.

With `CCOc1c(\C(=C/C=C/C(C)=C/C(=O)O)C(F)(F)F)cc(C(C)(C)C)cc1C(C)(C)C` [Example 5, (2E,4E,6E)-3-methyl-7-(2-ethoxy-3,5-di-tert-butylphenyl)-8,8,8-trifluoroocta-2,4,6-trienoic acid], the Ki at RXRα amounted to 38 nM. Also, the “RARa Synergy CTF % Efficacy” value with RXR:RAR heterodimer amounted to 7%.
For the molecule `CCCCOc1c(\C(C)=C/C=C/C(=C\C(=O)O)C(F)(F)F)cc(C(C)C)cc1C(C)C` [Example 4, (2E,4E,6Z)-7-(2-Butoxy-3,5-diisopropylphenyl)-3-trifluoromethyl-octa-2,4,6-trienoic acid], the Ki at RXRα stood at 9110 nM. Also, in the data set on RXR:RAR heterodimer, the “RARa Synergy CTF fold induction” value is reported as 1 and the “RARa Synergy CTF % Efficacy” value is 6%.
On the same counts, the results for `C/C(=C/C(F)=C/C(C)=C/C(=O)O)c1cc(C(C)(C)C)cc(C(C)(C)C)c1OCC(F)F` [Example 2, 7-[3,5-Di-tert-butyl-2-(2,2-difluoroethoxy)-phenyl]-5-fluoro-3-methyl-octa-2,4,6-trienoic acid] are 8.2 nM, 9 and 112%.
On the same counts, the results for `CCCCOc1c(\C(C)=C/C=C/C(=C/C(=O)O)C(F)(F)F)cc(C(C)C)cc1C(C)C` [Example 3, (2Z,4E,6Z)-7-(2-Butoxy-3,5-diisopropylphenyl)-3-trifluoromethyl-octa-2,4,6-trienoic acid] are 1300 nM, 1 and 6%.
For `C/C(=C/C=C(F)/C(C)=C/C(=O)O)c1cc(C(C)(C)C)cc(C(C)(C)C)c1OCC(F)F` [Example 1, 7-[3,5-di-tert-butyl-2-(2,2-difluoroethoxy)-phenyl]4-fluoro-3-methyl-octa-2,4,6-trienoic acid], in that order: 4.8 nM, 3 and 28%.
